Results published in PMC10692362 (Acta Pharmaceutica Sinica. B, 2023).
Like-named read-outs stand apart in the source and are kept apart here.

Columns and labels:
T-47D cells = assay: Cell viability assay; format: cell-based, human; settings: Homo sapiens, T47D, 72 h, read-out: T-47D IC50
MCF-7 cells = assay: Cell viability assay; format: cell-based, human; settings: Homo sapiens, MCF7, 72 h, read-out: MCF-7 IC50
human ERβ LBD = human ERβ LBD (Homo sapiens, UniProt Q92731); assay: Competitive fluorescence polarization binding assay, ERβ; settings: for RBA ERβ: IC50 estradiol/IC50 compound × 100, estradiol = 100%
T-47D^Y537S cells = assay: Cell viability assay; format: cell-based, human; settings: Homo sapiens, 72 h, read-out: T-47D^Y537S IC50
human ERα LBD = target: T1, human ERα LBD (Homo sapiens, UniProt P03372); assay: Competitive fluorescence polarization binding assay, ERα; settings: for RBA ERα: IC50 estradiol/IC50 compound × 100, estradiol = 100%; for α/β ratio: ratio of RBA ERα to RBA ERβ
T1 sequence (P03372 311-547 limits assumed): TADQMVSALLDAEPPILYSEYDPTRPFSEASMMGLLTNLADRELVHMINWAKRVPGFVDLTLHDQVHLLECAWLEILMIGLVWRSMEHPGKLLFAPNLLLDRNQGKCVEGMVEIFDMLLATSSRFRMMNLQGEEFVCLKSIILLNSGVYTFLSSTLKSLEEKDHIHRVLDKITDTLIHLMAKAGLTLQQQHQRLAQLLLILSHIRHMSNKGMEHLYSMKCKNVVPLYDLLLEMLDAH

T-47D^D538G cells = assay: Cell viability assay; format: cell-based, human; settings: Homo sapiens, 72 h, read-out: T-47D^D538G IC50

Sequence of human ERβ LBD (Q92731 264-498 limits assumed): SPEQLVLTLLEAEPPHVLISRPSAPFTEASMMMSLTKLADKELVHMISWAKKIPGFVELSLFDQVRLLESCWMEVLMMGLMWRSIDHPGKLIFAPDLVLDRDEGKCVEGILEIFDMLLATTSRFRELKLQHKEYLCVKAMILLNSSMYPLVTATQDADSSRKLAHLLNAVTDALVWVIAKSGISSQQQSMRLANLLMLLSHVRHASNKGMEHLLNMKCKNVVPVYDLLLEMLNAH

| SMILES | IC50 (T-47D cells) [µM] | IC50 (MCF-7 cells) [µM] | Ki (human ERβ LBD) [µM] | RBA ERβ (human ERβ LBD) [%] | IC50 (T-47D^Y537S cells) [µM] | Ki (human ERα LBD) [µM] | RBA ERα (human ERα LBD) [%] | α/β ratio (human ERα LBD) | IC50 (T-47D^D538G cells) [µM] | Ki (human ERβ LBD; read-out: Ki ERβ) [µM] | Ki (human ERα LBD; read-out: Ki ERα) [µM] |
| --- | --- | --- | --- | --- | --- | --- | --- | --- | --- | --- | --- |
| O=C(CCl)Nc1ccc(OS(=O)(=O)C2CC3OC2C(c2ccc(O)cc2)=C3c2ccc(O)cc2)cc1 (stereo not shown) [Compound 26e, 4-(2-Chloroacetamido)phenyl-5,6-bis(4-hydroxyphenyl)-7-oxabicyclo[2.2.1]hept-5-ene-2-sulfonate] | 8.2 ± 0.36 | 3.42 ± 0.32 | 0.0121 | 0.55 ± 0.02 | 8.85 ± 0.61 | 0.00271 | 1.02 ± 0.13 | 1.85 | 7.86 ± 0.37 |  |  |
| CC(C)=CC(=O)Nc1ccc(C2=C(c3ccc(O)cc3)C3CC(S(=O)(=O)N(CC(F)(F)F)c4ccccc4)C2O3)cc1 (stereo not shown) [Compound 29e, N-(4-(3-(4-Hydroxyphenyl)-6-(N-phenyl-N-(2,2,2-trifluoroethyl)sulfamoyl)-7-oxabicyclo[2.2.1]hept-2-en-2-yl)phenyl)-3-methylbut-2-enamide] | 5.1 ± 0.32 | 0.66 ± 0.12 | 0.0238 | 0.28 ± 0.05 | 1.79 ± 0.17 | 0.00029 | 9.50 ± 0.09 | 33.9 | 5.18 ± 0.31 |  |  |
| CC(C)=CC(=O)Nc1ccc(C2=C(c3ccc(O)cc3)C3OC2CC3S(=O)(=O)Oc2ccccc2)cc1 (stereo not shown) [Compound 28c, Phenyl-6-(4-hydroxyphenyl)-5-(4-(3-methylbut-2-enamido)phenyl)-7-oxabicyclo[2.2.1]hept-5-ene-2-sulfonate] | 24.9 ± 0.77 | 0.35 ± 0.02 | 0.00741 | 0.90 ± 0.25 | > 31 | 0.00012 | 22.13 ± 0.92 | 24.59 | 17.6 ± 0.89 |  |  |
| C=CC(=O)Nc1ccc(C2=C(c3ccc(O)cc3)C3OC2CC3S(=O)(=O)N(CC(F)(F)F)c2ccc(O)cc2)cc1 (stereo not shown) [Compound 29a, N-(4-(3-(4-Hydroxyphenyl)-5-(N-(4-hydroxyphenyl)-N-(2,2,2-trifluoroethyl)sulfamoyl)-7-oxabicyclo[2.2.1]hept-2-en-2-yl)phenyl)acrylamide] | 2.85 ± 0.29 | 0.18 ± 0.05 |  | 6.74 ± 0.21 | > 31 |  | 20.03 ± 0.25 | 2.97 | 5.55 ± 0.24 | 0.00099 | 0.00014 |
| C=CC(=O)Nc1ccc(C2=C(c3ccc(O)cc3)C3OC2CC3S(=O)(=O)Oc2ccccc2)cc1 (stereo not shown) [Compound 28a, Phenyl-5-(4-acrylamidophenyl)-6-(4-hydroxyphenyl)-7-oxabicyclo[2.2.1]hept-5-ene-2-sulfonate] | > 31 | 5.07 ± 0.71 | 0.00561 | 1.19 ± 0.27 | > 31 | 0.00015 | 18.55 ± 0.34 | 15.59 | > 31 |  |  |
| C/C=C/C(=O)Nc1ccc(C2=C(c3ccc(O)cc3)C3OC2CC3S(=O)(=O)Oc2ccccc2)cc1 (stereo not shown) [Compound 28b, Phenyl-5-(4-((E)-but-2-enamido)phenyl)-6-(4-hydroxyphenyl)-7-oxabicyclo[2.2.1]hept-5-ene-2-sulfonate] | 25.6 ± 0.98 | 0.44 ± 0.11 | 0.00064 | 10.40 ± 0.23 | > 31 | 0.0002 | 14.08 ± 0.25 | 1.35 | 17.1 ± 0.65 |  |  |
| C/C=C/C(=O)Nc1ccc(C2=C(c3ccc(O)cc3)C3OC2CC3S(=O)(=O)N(CC(F)(F)F)c2ccc(O)cc2)cc1 (stereo not shown) [Compound 29b, (E)-N-(4-(3-(4-Hydroxyphenyl)-5-(N-(4-hydroxyphenyl)-N-(2,2,2-trifluoroethyl)sulfamoyl)-7-oxabicyclo[2.2.1]hept-2-en-2-yl)phenyl)but-2-enamide] | 5.12 ± 0.33 | 0.36 ± 0.04 | 0.0106 | 0.63 ± 0.14 | > 31 | 0.00014 | 19.82 ± 0.19 | 31.46 | > 31 |  |  |
| CC(C)=CC(=O)Nc1ccc(C2=C(c3ccc(O)cc3)C3CC(S(=O)(=O)N(CC(F)(F)F)c4ccc(C)cc4)C2O3)cc1 (stereo not shown) [Compound 29d, N-(4-(3-(4-Hydroxyphenyl)-6-(N-(p-tolyl)-N-(2,2,2-trifluoroethyl)sulfamoyl)-7-oxabicyclo[2.2.1]hept-2-en-2-yl)phenyl)-3-methylbut-2-enamide] | 8.33 ± 0.22 | 0.75 ± 0.21 | 0.00487 | 1.37 ± 0.11 | > 31 | 0.00043 | 6.49 ± 0.21 | 4.74 | > 31 |  |  |
| C=CC(=O)Nc1ccc(OS(=O)(=O)C2CC3OC2C(c2ccc(O)cc2)=C3c2ccc(O)cc2)cc1 (stereo not shown) [Compound 26a, 4-Acrylamidophenyl-5,6-bis(4-hydroxyphenyl)-7-oxabicyclo[2.2.1]hept-5-ene-2-sulfonate] | > 31 | 7.72 ± 0.64 |  | 3.86 ± 0.34 | 27.2 ± 0.73 |  | 8.04 ± 0.87 | 2.08 | > 31 |  |  |
| CC(C)=CC(=O)Nc1ccc(C2=C(c3ccc(O)cc3)C3OC2CC3S(=O)(=O)N(CC(F)(F)F)c2ccc(F)cc2)cc1 (stereo not shown) [Compound 29g, N-(4-(5-(N-(4-Fluorophenyl)-N-(2,2,2-trifluoroethyl)sulfamoyl)-3-(4-hydroxyphenyl)-7-oxabicyclo[2.2.1]hept-2-en-2-yl)phenyl)-3-methylbut-2-enamide] | 5.28 ± 0.23 | 0.64 ± 0.1 | 0.00654 | 1.02 ± 0.13 | > 31 | 0.00037 | 7.52 ± 0.29 | 7.37 | 7.82 ± 0.47 |  |  |
| Nc1ccc(C2=C(c3ccc(O)cc3)C3OC2CC3S(=O)(=O)N(CC(F)(F)F)c2ccc(O)cc2)cc1 (stereo not shown) [Compound 29l, 5-(4-Aminophenyl)-N,6-bis(4-hydroxyphenyl)-N-(2,2,2-trifluoroethyl)-7-oxabicyclo[2.2.1]hept-5-ene-2-sulfonamide] | 8.11 ± 0.37 | 3.17 ± 0.33 | 0.00284 | 2.35 ± 0.33 | > 31 | 0.00114 | 2.43 ± 0.27 | 1.03 | > 31 |  |  |
| CC(C)=CC(=O)Nc1ccc(OS(=O)(=O)C2CC3OC2C(c2ccc(O)cc2)=C3c2ccc(O)cc2)cc1 (stereo not shown) [Compound 26c, 4-(3-Methylbut-2-enamido)phenyl-5,6-bis(4-hydroxyphenyl)-7-oxabicyclo[2.2.1]hept-5-ene-2-sulfonate] | 15.8 ± 0.68 | 3.16 ± 0.63 | 0.00509 | 1.31 ± 0.66 | 12 ± 0.4 | 0.00084 | 3.28 ± 0.17 | 2.50 | 8.75 ± 0.25 |  |  |
| O=C(CBr)Nc1ccc(OS(=O)(=O)C2CC3OC2C(c2ccc(O)cc2)=C3c2ccc(O)cc2)cc1 (stereo not shown) [Compound 26f, 4-(2-Bromoacetamido)phenyl-5,6-bis(4-hydroxyphenyl)-7-oxabicyclo[2.2.1]hept-5-ene-2-sulfonate] | 9.11 ± 0.21 | 0.5 ± 0.3 |  | 3.86 ± 0.34 | > 31 |  |  | 2.08 | > 31 |  |  |
| CC(C)=CC(=O)Nc1ccc(C2=C(c3ccc(O)cc3)C3CC(S(=O)(=O)Oc4ccc(O)cc4)C2O3)cc1 (stereo not shown) [Compound 28f, 4-Hydroxyphenyl-5-(4-hydroxyphenyl)-6-(4-(3-methylbut-2-enamido)phenyl)-7-oxabicyclo[2.2.1]hept-5-ene-2-sulfonate] | 8.53 ± 0.12 | 0.93 ± 0.19 | 0.00203 | 3.29 ± 0.25 | 9.11 ± 0.35 | 0.00035 | 7.93 ± 0.34 | 2.41 | > 31 |  |  |
| C#CC(=O)Nc1ccc(OS(=O)(=O)C2CC3OC2C(c2ccc(O)cc2)=C3c2ccc(O)cc2)cc1 (stereo not shown) [Compound 26d, 4-Propiolamidophenyl-5,6-bis(4-hydroxyphenyl)-7-oxabicyclo[2.2.1]hept-5-ene-2-sulfonate] | 6.91 ± 0.29 | 1.79 ± 0.4 | 0.0136 | 0.49 ± 0.04 | 8.93 ± 0.25 | 0.00325 | 0.85 ± 0.08 | 1.73 | 9.33 ± 0.46 |  |  |
| O=C(CBr)Nc1ccc(C2=C(c3ccc(O)cc3)C3OC2CC3S(=O)(=O)Oc2ccccc2)cc1 (stereo not shown) [Compound 28e, Phenyl-5-(4-(2-bromoacetamido)phenyl)-6-(4-hydroxyphenyl)-7-oxabicyclo[2.2.1]hept-5-ene-2-sulfonate] | 19.7 ± 0.32 | 1.1 ± 0.14 | 0.0185 | 0.36 ± 0.03 | > 31 | 0.00029 | 9.44 ± 0.40 | 26.22 | > 31 |  |  |
| C/C=C/C(=O)Nc1ccc(OS(=O)(=O)C2CC3OC2C(c2ccc(O)cc2)=C3c2ccc(O)cc2)cc1 (stereo not shown) [Compound 26b, 4-((E)-But-2-enamido)phenyl-5,6-bis(4-hydroxyphenyl)-7-oxabicyclo[2.2.1]hept-5-ene-2-sulfonate] | 19.4 ± 0.54 | 9.18 ± 0.95 | 0.0167 | 0.40 ± 0.05 | > 31 | 0.00058 | 4.77 ± 0.16 | 11.93 | > 31 |  |  |
